Tests used:
Assay in all cases: Film inoculated on Tryptic Soy Agar plate: growth, zone of inhibition, scraping/streak
Type in all cases: cell-based
Details in all cases: after 4 days
[1] = tested on: Candida albicans ATCC 10231
Description: (§1) Each film sample was individually placed on the surface of a Tryptic Soy Agar (TSA) plate in an aseptic manner. Each film was individually inoculated with 1 mL of one of the three (3) challenge organisms shown below. For each challenge organism, one “Sample Film” and one “Control Film” were inoculated. Due to the anticipated slow absorption of the challenge inoculum by the test samples, the inoculum was dispensed onto each film sample very slowly. After inoculation, each sample was carefully moved to incubation at the temperature range appropriate for the inoculated challenge organism and incubated for four (4) days. Each day of incubation, all plates were removed from incubation for visual and stereoscopic evaluation. Upon evaluation, the presence or absence of growth on the plate and/or on the sample was noted. In addition, the sample was evaluated for the presence or absence of a zone of inhibition around the sample. The presence or absence of a zone was reported as “Z” for Zone (size in mm) or “NZ” for no zone present. [table] Additional Test Information: • G=Growth • NG=No Growth • Z=Zone (in mm) • NZ=No Zone • Additional Information/Observations: At the conclusion of the testing period, all test samples were individually removed from the agar surface and gently shaken to remove any excess moisture remaining on the surface of the sample. The samples were then individually examined under the stereoscope by a laboratory technician. […] Following the documentation of the observations above, each sample was scraped with an inoculating loop on the inoculated, top side of each sample to determine whether macroscopic growth could be visually observed. […] The following is a summary of findings from this portion of the test: […]

[2] = tested on: Escherichia coli ATCC 8739
Description: as §1

[3] = tested on: Staphylococcus aureus ATCC 6538
Description: as §1

Clc1cccc(Cl)c1N=C1NCCN1 [clonidine, 2,6-dichloro-N-2-imidazolidinyldenebenzenamine]
inhibited growth: growth of fungus (C. albicans) [1] | growth of gram negative bacteria (E. coli) [2] | growth of gram positive bacteria (S. aureus) [3]

Source: US20110097380A1, “CLONIDINE FORMULATIONS HAVING ANTIMICROBIAL PROPERTIES” (Warsaw Orthopedic, Inc., priority 2009, published 2011)
